We go through one molecule from PMC7326984, “Synthesis, in vitro urease inhibitory potential and molecular docking study of benzofuran-based-thiazoldinone analogues” (Scientific Reports, 2020).

As a reminder, the IC50 is the concentration at which inhibition is half-maximal.

The assay concerns the target urease enzyme (Canavalia ensiformis, UniProt P07374). The class given is biochemical. The note with it: read-out: IC50 values (urease inhibition); indophenol method, pH 6.8, 30 °C, 15 min incubation, triplicate; thiourea as standard. The protocol: 25 µL of enzyme and 55 µL of buffer was added to 100 mM urea that were incubated with test scaffolds 5 µL (0.5 mM concentration) for 15 min at 30 °C in 96-well plates. Urea concentrations were changed from 2–24 mM to study kinetics. As described by Weatherburn the urease potential was assessed by measuring the ammonia production with using indophenol method. Concisely, 70 µL of alkali reagent (0.1% active chloride NaOCl and 0.5 w/v NaOH) and 45 µL of reagent phenol (0.005% w/v sodium nitroprusside and 1% w/v phenol) were added to each and every well plate. Using microplate reader (Molecular Device, USA) the increase in absorbance at 630 nm was measured after 50 min. Using 200 µL as final volume the reading was performed as triplicate. With help of SoftMaxPro software (Molecular Device, USA) the results (per min absorbance change) were calculated. At pH 6.8 the entire assay was performed. With the help of 100 − (ODtest well/ODcontrol) × 100 the percentage inhibition was calculated.

Chain of urease enzyme (P07374 whole entry, looked up): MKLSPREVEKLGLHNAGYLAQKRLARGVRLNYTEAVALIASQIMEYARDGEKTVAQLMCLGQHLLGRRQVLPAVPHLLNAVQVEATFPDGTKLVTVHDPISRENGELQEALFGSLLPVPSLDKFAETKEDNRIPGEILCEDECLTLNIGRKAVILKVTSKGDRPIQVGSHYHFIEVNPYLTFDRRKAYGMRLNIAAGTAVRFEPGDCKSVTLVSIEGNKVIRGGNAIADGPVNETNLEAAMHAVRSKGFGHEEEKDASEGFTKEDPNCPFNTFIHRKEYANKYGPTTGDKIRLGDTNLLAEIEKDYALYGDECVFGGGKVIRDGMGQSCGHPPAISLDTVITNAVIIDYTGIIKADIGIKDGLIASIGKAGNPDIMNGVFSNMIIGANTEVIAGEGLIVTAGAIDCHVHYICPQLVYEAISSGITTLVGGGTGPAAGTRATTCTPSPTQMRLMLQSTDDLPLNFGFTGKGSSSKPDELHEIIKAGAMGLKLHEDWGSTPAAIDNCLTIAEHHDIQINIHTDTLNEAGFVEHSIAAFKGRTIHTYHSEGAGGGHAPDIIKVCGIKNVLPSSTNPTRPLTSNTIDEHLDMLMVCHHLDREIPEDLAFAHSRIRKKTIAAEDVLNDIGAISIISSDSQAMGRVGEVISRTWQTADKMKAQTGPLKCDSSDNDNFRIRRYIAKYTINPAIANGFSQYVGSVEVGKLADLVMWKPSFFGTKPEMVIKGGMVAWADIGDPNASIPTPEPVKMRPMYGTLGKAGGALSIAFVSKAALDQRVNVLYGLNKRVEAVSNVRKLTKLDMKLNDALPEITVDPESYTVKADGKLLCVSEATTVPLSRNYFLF

On to `O=C(NN1C(=O)SCC1c1ccc(Cl)cc1Cl)c1cc2c(F)cc([N+](=O)[O-])cc2o1` (stereo not shown) [Compound 8, N-(4-(2,4-dichlorophenyl)-2-oxothiazolidin-3-yl)-4-fluoro-6-nitrobenzofuran-2-carboxamide], for which the IC50 came out at 2.9 ± 0.01 µM.
